Measured values taken from article PMC7434893 (British Journal of Cancer, 2020).
Where “and” joins values, the source holds several entries; their conditions need not be identical. Identical values can stand only once. Like-named read-outs stand apart in the source and are kept apart here.

Protocol: Patients received study drug until disease progression, development of unacceptable toxicity or withdrawal of consent.
Safety was measured by monitoring and recording all AEs, including all Common Terminology Criteria for Adverse Events grades, and serious AEs (SAEs), clinical laboratory test results, vital sign measurements and electrocardiogram and physical examination findings.

Question: For O=c1[nH]nc2c3c(cccc13)N=C(CN1Cc3ccccc3C1)N2 [E7449], which “Vomiting, treatment-related AE” value (400 mg (n = 4)) is on record?
Answer: Its value is 0%.

Question: What about the “Patients with dose-limiting toxicity, n (%)” value (400 mg cohort, 3 evaluable) of the same compound?
Answer: The value was 0 n (%).

Question: What about the “Abdominal pain, treatment-related AE” value (600 mg (n = 21)) of the same compound?
Answer: The value was 0%.

Question: And the “Anaemia, treatment-related AE” value (600 mg (n = 21))?
Answer: Its value is 9.5%.

Question: What about the “Chromaturia, treatment-related AE” value (600 mg (n = 21)) of the same compound?
Answer: Its value is 66.7%.

Question: What about the “Constipation, treatment-related AE” value (600 mg (n = 21)) of the same compound?
Answer: Its value is 9.5%.

Question: What about the “Decreased appetite, treatment-related AE” value (600 mg (n = 21)) of the same compound?
Answer: Its value is 23.8%.

Question: And the “Depression, treatment-related AE” value (600 mg (n = 21))?
Answer: Its value is 4.8%.

Question: And the “Diarrhoea, treatment-related AE” value (600 mg (n = 21))?
Answer: The value was 23.8%.

Question: And the “Dizziness, treatment-related AE” value (600 mg (n = 21))?
Answer: Its value is 4.8%.

Question: What about the “Dry skin, treatment-related AE” value (600 mg (n = 21)) of the same compound?
Answer: The value was 4.8%.

Question: What about the “Dysgeusia, treatment-related AE” value (600 mg (n = 21)) of the same compound?
Answer: The value was 14.3%.

Question: What about the “Erythematous rash, treatment-related AE” value (600 mg (n = 21)) of the same compound?
Answer: Its value is 9.5%.

Question: And the “Fatigue, treatment-related AE” value (600 mg (n = 21))?
Answer: Its value is 66.7%.

Question: And the “Increased blood alkaline phosphatase, treatment-related AE” value (“Increased blood alkaline phosphatase” below) (600 mg (n = 21))?
Answer: The value was 14.3%.

Question: And the “Maculopapular rash, treatment-related AE” value (600 mg (n = 21))?
Answer: Its value is 33.3%.

Question: What about the “Nausea, treatment-related AE” value (600 mg (n = 21)) of the same compound?
Answer: Its value is 33.3%.

Question: What about the “Onycholysis, treatment-related AE” value (600 mg (n = 21)) of the same compound?
Answer: The value was 9.5%.

Question: What about the “Periorbital oedema, treatment-related AE” value (600 mg (n = 21)) of the same compound?
Answer: Its value is 19.0%.

Question: And the “Photosensitivity reaction, treatment-related AE” value (“Photosensitivity reaction” below) (600 mg (n = 21))?
Answer: The value was 23.8%.

Question: And the “Pruritus, treatment-related AE” value (600 mg (n = 21))?
Answer: The value was 19.0%.

Question: And the “Skin hyperpigmentation, treatment-related AE” value (“Skin hyperpigmentation” for short) (600 mg (n = 21))?
Answer: Its value is 9.5%.

Question: What about the “Vomiting, treatment-related AE” value (600 mg (n = 21)) of the same compound?
Answer: Its value is 14.3%.

Question: What about the Dose-limiting-toxicity description (600 mg cohort) of the same compound?
Answer: The Dose-limiting-toxicity description was “Grade 3 anaphylactic reaction”.

Question: What about the “Patients with dose-limiting toxicity, n (%)” value (600 mg cohort, 6 evaluable) of the same compound?
Answer: Its value is 1 (16.7) n (%).

Question: And the “Treatment-related grade 3 fatigue, patients” value (600 mg n = 2, 800 mg n = 2)?
Answer: Its value is 4.

Question: What about the “Abdominal pain, treatment-related AE” value (800 mg (n = 6)) of the same compound?
Answer: The value was 16.7%.

Question: What about the “Anaemia, treatment-related AE” value (800 mg (n = 6)) of the same compound?
Answer: The value was 0%.

Question: What about the “Chromaturia, treatment-related AE” value (800 mg (n = 6)) of the same compound?
Answer: Its value is 66.7%.

Question: What about the “Constipation, treatment-related AE” value (800 mg (n = 6)) of the same compound?
Answer: Its value is 0%.

Question: What about the “Decreased appetite, treatment-related AE” value (800 mg (n = 6)) of the same compound?
Answer: Its value is 50.0%.

Question: And the “Depression, treatment-related AE” value (800 mg (n = 6))?
Answer: Its value is 16.7%.

Question: What about the “Diarrhoea, treatment-related AE” value (800 mg (n = 6)) of the same compound?
Answer: Its value is 50.0%.

Question: What about the “Dizziness, treatment-related AE” value (800 mg (n = 6)) of the same compound?
Answer: Its value is 33.3%.

Question: And the “Dry skin, treatment-related AE” value (800 mg (n = 6))?
Answer: Its value is 33.3%.

Question: And the “Dysgeusia, treatment-related AE” value (800 mg (n = 6))?
Answer: Its value is 0%.

Question: What about the “Erythematous rash, treatment-related AE” value (800 mg (n = 6)) of the same compound?
Answer: The value was 16.7%.

Question: What about the “Fatigue, treatment-related AE” value (800 mg (n = 6)) of the same compound?
Answer: Its value is 100.0%.

Question: And the “Increased blood alkaline phosphatase” value (800 mg (n = 6))?
Answer: The value was 0%.

Question: What about the “Maculopapular rash, treatment-related AE” value (800 mg (n = 6)) of the same compound?
Answer: The value was 16.7%.

Question: And the “Nausea, treatment-related AE” value (800 mg (n = 6))?
Answer: The value was 33.3%.

Question: And the “Onycholysis, treatment-related AE” value (800 mg (n = 6))?
Answer: Its value is 0%.

Question: What about the “Periorbital oedema, treatment-related AE” value (800 mg (n = 6)) of the same compound?
Answer: The value was 0%.

Question: What about the “Photosensitivity reaction” value (800 mg (n = 6)) of the same compound?
Answer: Its value is 33.3%.

Question: And the “Pruritus, treatment-related AE” value (800 mg (n = 6))?
Answer: Its value is 0%.

Question: What about the “Skin hyperpigmentation” value (800 mg (n = 6)) of the same compound?
Answer: The value was 33.3%.

Question: What about the “Vomiting, treatment-related AE” value (800 mg (n = 6)) of the same compound?
Answer: The value was 33.3%.

Question: And the Dose-limiting-toxicity description (800 mg cohort)?
Answer: The Dose-limiting-toxicity description was “Grade 3 fatigue (n = 1) Grade 2 fatigue (n = 3)”.

Question: What about the “Patients with dose-limiting toxicity, n (%)” value (800 mg cohort, 6 evaluable) of the same compound?
Answer: The value was 4 (66.7) n (%).

Question: What about the “Treatment-emergent AEs associated with skin rash events, patients” value (shortened to “Treatment-emergent AEs associated”) (17/41, doses ≥100 mg) of the same compound?
Answer: Its value is 41.5%.

Question: What about the “Grade 4 AE (hypokalaemia, not treatment-related), patients” value (200-mg dose cohort) of the same compound?
Answer: Its value is 1.

Question: And the “Treatment-emergent chromaturia, patients” value (400-mg dose cohort)?
Answer: The value was 50.0%.

Question: And the “Treatment-emergent AEs associated” value (600-mg dose cohort)?
Answer: The value was 47.6%.

Question: What about the “Treatment-emergent chromaturia, patients” value (600-mg dose cohort) of the same compound?
Answer: The value was 66.7%.

Question: What about the “Treatment-emergent AEs associated” value (800-mg dose cohort) of the same compound?
Answer: The value was 66.7%.

Question: And the “Treatment-emergent chromaturia, patients” value (800-mg dose cohort)?
Answer: The value was 83.3%.

Question: What about the “Abdominal pain, treatment-related AE” value (Total (N = 41)) of the same compound?
Answer: The value was 7.3%.

Question: And the “Anaemia, treatment-related AE” value (Total (N = 41))?
Answer: Its value is 7.3%.

Question: What about the “Chromaturia, treatment-related AE” value (Total (N = 41)) of the same compound?
Answer: Its value is 49% and 48.8%.

Question: What about the “Constipation, treatment-related AE” value (Total (N = 41)) of the same compound?
Answer: Its value is 9.8%.

Question: What about the “Decreased appetite, treatment-related AE” value (Total (N = 41)) of the same compound?
Answer: The value was 24% and 24.4%.

Question: What about the “Depression, treatment-related AE” value (Total (N = 41)) of the same compound?
Answer: The value was 14.6%.

Question: And the “Diarrhoea, treatment-related AE” value (Total (N = 41))?
Answer: The value was 29% and 29.3%.

Question: And the “Dizziness, treatment-related AE” value (Total (N = 41))?
Answer: The value was 7.3%.

Question: What about the “Dry skin, treatment-related AE” value (Total (N = 41)) of the same compound?
Answer: Its value is 9.8%.

Question: What about the “Dysgeusia, treatment-related AE” value (Total (N = 41)) of the same compound?
Answer: The value was 7.3%.

Question: And the “Erythematous rash, treatment-related AE” value (Total (N = 41))?
Answer: The value was 7.3%.

Question: And the “Fatigue, treatment-related AE” value (Total (N = 41))?
Answer: The value was 63% and 63.4%.

Question: What about the “Increased blood alkaline phosphatase” value (Total (N = 41)) of the same compound?
Answer: Its value is 9.8%.

Question: And the “Maculopapular rash, treatment-related AE” value (Total (N = 41))?
Answer: The value was 27% and 26.8%.

Question: What about the “Nausea, treatment-related AE” value (Total (N = 41)) of the same compound?
Answer: Its value is 34% and 34.1%.

Question: What about the “Onycholysis, treatment-related AE” value (Total (N = 41)) of the same compound?
Answer: Its value is 7.3%.

Question: What about the “Periorbital oedema, treatment-related AE” value (Total (N = 41)) of the same compound?
Answer: The value was 12.2%.

Question: And the “Photosensitivity reaction” value (Total (N = 41))?
Answer: The value was 24% and 24.4%.

Question: What about the “Pruritus, treatment-related AE” value (Total (N = 41)) of the same compound?
Answer: The value was 12.2%.

Question: And the “Skin hyperpigmentation” value (Total (N = 41))?
Answer: The value was 12.2%.

Question: What about the “Vomiting, treatment-related AE” value (Total (N = 41)) of the same compound?
Answer: The value was 17.1%.

Question: And the “Grade 5 AEs” value (all cohorts)?
Answer: The value was “No grade 5 AEs”.

Question: What about the “Grade 3 fatigue, patients” value (all cohorts, 7/41) of the same compound?
Answer: The value was 17.1%.

Question: And the “Treatment discontinued due to AEs, patients” value (all cohorts, 7/41)?
Answer: The value was 17%.

Question: And the “Treatment-emergent chromaturia, patients” value (all cohorts, 21/41)?
Answer: Its value is 51.2%.

Question: And the “Nonfatal SAEs, patients” value (all cohorts, 24/41)?
Answer: The value was 58.5%.

Question: What about the “Grade 3 AEs, patients” value (all cohorts, 27 of 41 patients) of the same compound?
Answer: Its value is 65.9%.

Question: And the “Patients with treatment-related AEs” value (all cohorts, 39 patients)?
Answer: The value was 95.1%.

Question: What about the “Grade 1 thrombocytopenia, patients” value (at the MTD, 1/21) of the same compound?
Answer: The value was 5%.

Question: And the “Anaemia (≤grade 2), patients” value (at the MTD, 4/21)?
Answer: The value was 19%.

Question: What about the “Patients with DLTs” value (of the 25 evaluable patients, all dose cohorts) of the same compound?
Answer: Its value is 5.

Question: And the “Recommended phase 2 dose” value (oral, once daily)?
Answer: Its value is 600 mg.

Question: What about the “Maximum-tolerated dose (MTD)” value (oral, once daily, 28-day cycles) of the same compound?
Answer: Its value is 600 mg.
